Where two headings read alike, the source gives them in different places.

These results are taken from patent US20200056220A1, “GENERATION OF DATA FOR USE WITH ANTIMICROBIALS” (GeneFluidics, Inc., priority 2018, published 2020).

The test system of the experiment is E. coli. Conditions: for average current signal of the four sensors, base susceptibility test: 0 minutes susceptibility culture time, sample diluted to 5×10^5 CFU/mL, −250 mV; for average current signal of the four sensors, base susceptibility test / current of the 60 minute test sample: 0.4 μg antibiotic in 100 μL Mueller-Hinton broth. The procedure:
In an antimicrobial susceptibility testing phase, a local antibiogram can be used to identify antibiotics for treating the pathogen identified in Example 1. […] Susceptibility cultures can be started. […] A second susceptibility culture including imipenem can be generated by diluting a portion of the raw sample to 5×10^5 CFU/mL and distributing the result into a vial with a 0.4 μg of a lyophilized version of the imipenem and 100 μL of culture media (Mueller-Hinton broth).
The imipenem susceptibility test sample can be used to generate an imipenem test sample shortly after the imipenem susceptibility culture was started. The Proteus automated system can begin to prepare a test sample from the imipenem susceptibility test sample by transferring 30 μL of the imipenem susceptibility test sample to a microcentrifuge vial in the machine. Then, the Proteus automated system can add 12 μL of 1M NaOH to the 30 μL sample. This sample can be incubated at room temperature for 2 minutes. The Proteus system can then add 8 μL of 1M HCl. Ten microliters of the result can be placed on each of 4 sensors of the 16 available on the GeneFluidics, Inc. 16X EC chip. This chip can be incubated in the Proteus machine for 11 minutes at 43° C. After completion of this incubation, the chip can be washed and dried by Proteus. Ten microliters of 0.5 U/mL anti-fluorescein horseradish peroxidase (HRP) Fab fragments (Roche; diluted in 1.0% casein in 1 M phosphate-buffered saline, pH 7.4) can be injected into the sensor chambers and incubated for 2 minutes at 25° C. The final reagent addition can be 40 μL of 3,3′,5,5′-tetramethylbenzidine (TMB)-H2O2 solution (K-Blue Low Activity TMB Substrate; Neogen, Lexington Ky.) and incubated for 30 seconds to provide the imipenem test sample.
Then, the Proteus automated system can add 12 μL of 1M NaOH to the 30 μL sample. This sample can be incubated at room temperature for 2 minutes. The Proteus system can then add 8 μL of 1M HCl. Ten microliters of the result can be placed on each of 4 sensors of the 16 available on the GeneFluidics, Inc. 16X EC chip. This chip can be incubated in the Proteus machine for 11 minutes at 43° C. After completion of this incubation, the chip can be washed and dried by Proteus. Ten microliters of 0.5 U/mL anti-fluorescein horseradish peroxidase (HRP) Fab fragments (Roche; diluted in 1.0% casein in 1 M phosphate-buffered saline, pH 7.4) can be injected into the sensor chambers and incubated for 2 minutes at 25° C.
The test samples were tested for concentration using a test that served as the base susceptibility test or the zero susceptibility culture time test. For instance, a Helios potentiostat from GeneFluidics, Inc. was connected to the electrodes of the sensor chips and a potential of −250 mV was applied across the electrodes for one minute. During this time, the current generated by the electrochemical reaction was measured by the potentiostat. The average current measured in the final 10 seconds of the potentiostat reading constituted the final result of the assay.
The process that was used to prepare the test samples for the base susceptibility tests was to be used to generate test samples from each of the susceptibility cultures at 60 minutes, and 90 minutes. Each of the test samples were tested as described above.

Where [1] appears, read: 60 minutes susceptibility culture time.

Consider `O=C(O)c1cn(C2CC2)c2cc(N3CCNCC3)c(F)cc2c1=O` [ciprofloxacin], for which the “average current signal of the four sensors, base susceptibility test” value is 30 nA. Also, the “reported result (resistant / susceptible to the concentration of antimicrobial in the culture)” value (0.4 μg antibiotic in 100 μL culture media, final report when culture was stopped) is “susceptible”. For the same compound, under setting [1], the “increase over the current level from base susceptibility test” value (from here on “increase over the current level”) is 0% and the “current of the 60 minute test sample” value is recorded as 30 nA. Besides, for the setting “90 minutes susceptibility culture time”, the “increase over the current level” value is recorded as 0%.
On to `C[C@@H](O)[C@H]1C(=O)N2C(C(=O)O)=C(SCCN=CN)C[C@H]12` [imipenem], for which the “average current signal of the four sensors, base susceptibility test” value turned out to be 30 nA. Further, under setting [1], the “increase over the current level” value is reported as 500% and the “current of the 60 minute test sample” value amounted to 180 nA.
